# Source: PubChem BioAssay AID330 (DTP/NCI, 2004)
# “And” between values parts separate entries of the source, which are not always exact repeats. Identical values can stand only once. Toxic doses and inconclusive results are not listed.
# Test system: P388 leukemia ip, CD2F1 mice, survival T/C
# Assay: NCI In Vivo Anticancer Drug Screen. Data for tumor model P388 Leukemia (intraperitoneal) in CD2F1 (CDF1) mice
# Details: endpoint: median survival time, higher = longer survival
# Method in brief: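 Mice carrying the transplanted tumor received test compound or vehicle. Survival was recorded in each group, and the value is the treated-group measurement divided by that of the vehicle-treated control group.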
# [1] = dose: 50.0 mg/kg/injection, schedule: Q01DX005 (ip), vehicle: saline
# [2] = dose: 50.0 mg/kg/injection, schedule: Q01DX009 (ip), vehicle: Klucel (hydroxypropylcellulose) (HPC)
# [3] = dose: 100.0 mg/kg/injection, schedule: Q01DX009 (ip), vehicle: Klucel (hydroxypropylcellulose) (HPC)
# [4] = dose: 200.0 mg/kg/injection, schedule: Q01DX009 (ip), vehicle: Klucel (hydroxypropylcellulose) (HPC)
# [5] = dose: 25.0 mg/kg/injection, schedule: Q01DX009 (ip), vehicle: saline with Tween-80
# [6] = dose: 50.0 mg/kg/injection, schedule: Q01DX009 (ip), vehicle: saline with Tween-80
# [7] = dose: 100.0 mg/kg/injection, schedule: Q01DX009 (ip), vehicle: saline with Tween-80
# [8] = dose: 12.5 mg/kg/injection, schedule: Q01DX009 (ip), vehicle: Klucel (hydroxypropylcellulose) (HPC)
# [9] = dose: 25.0 mg/kg/injection, schedule: Q01DX009 (ip), vehicle: Klucel (hydroxypropylcellulose) (HPC)
# [10] = dose: 200.0 mg/kg/injection, schedule: Q01DX009 (ip), vehicle: saline with Tween-80
# [11] = dose: 60.0 mg/kg/injection, schedule: Q01DX005 (ip), vehicle: saline with Tween-80
# [12] = dose: 120.0 mg/kg/injection, schedule: Q01DX005 (ip), vehicle: saline with Tween-80
smiles,measurement,setting,value
CC(C)NC(=O)OCc1c(COC(=O)NC(C)C)c(-c2ccc(Cl)cc2)n2c1CCC2,T/C,"dose: 3.12 mg/kg/injection, schedule: Q01DX005 (ip), vehicle: distilled water + Tween-80",161 % of control
same,T/C,"dose: 6.25 mg/kg/injection, schedule: Q01DX005 (ip), vehicle: distilled water + Tween-80",152 % of control
same,T/C,"dose: 12.5 mg/kg/injection, schedule: Q01DX005 (ip), vehicle: distilled water + Tween-80",186 % of control and 190 % of control
same,T/C,"dose: 25.0 mg/kg/injection, schedule: Q01DX005 (ip), vehicle: distilled water + Tween-80",186 % of control
same,T/C,"dose: 50.0 mg/kg/injection, schedule: Q01DX005 (ip), vehicle: distilled water + Tween-80",110 % of control and 93 % of control
COc1cc(C(=O)CC2=NC3NN(c4ccccc4)C(=O)C3=C2CC(=O)c2ccc(O)c(OC)c2)ccc1O (stereo not given),T/C,"dose: 60.0 mg/kg/injection, schedule: Q01DX005 (ip), vehicle: saline",100 % of control
same,T/C,"dose: 120.0 mg/kg/injection, schedule: Q01DX005 (ip), vehicle: saline",102 % of control
same,T/C,"dose: 240.0 mg/kg/injection, schedule: Q01DX005 (ip), vehicle: saline",98 % of control
CCCCN(CCCC)P1(=O)OP(=O)(N(CCCC)CCCC)OP(=O)(N(CCCC)CCCC)O1 (stereo not given),T/C,"dose: 12.5 mg/kg/injection, schedule: Q01DX005 (ip), vehicle: saline",97 % of control
same,T/C,"dose: 25.0 mg/kg/injection, schedule: Q01DX005 (ip), vehicle: saline",101 % of control
same,T/C,[1],101 % of control and 96 % of control
CNC(=O)c1ccccc1NC(=O)c1ccccc1[N+](=O)[O-],T/C,"dose: 100.0 mg/kg/injection, schedule: Q04DX002 (ip), vehicle: Klucel (hydroxypropylcellulose) (HPC)",102 % of control
same,T/C,"dose: 200.0 mg/kg/injection, schedule: Q04DX002 (ip), vehicle: Klucel (hydroxypropylcellulose) (HPC)",107 % of control
same,T/C,"dose: 400.0 mg/kg/injection, schedule: Q04DX002 (ip), vehicle: Klucel (hydroxypropylcellulose) (HPC)",103 % of control
OCc1ccc(OCc2ccccc2)c(OCc2ccccc2)c1,T/C,"dose: 50.0 mg/kg/injection, schedule: Q04DX003 (ip), vehicle: saline",98 % of control
same,T/C,"dose: 100.0 mg/kg/injection, schedule: Q04DX003 (ip), vehicle: saline",98 % of control
same,T/C,"dose: 200.0 mg/kg/injection, schedule: Q04DX003 (ip), vehicle: saline",104 % of control
same,T/C,"dose: 400.0 mg/kg/injection, schedule: Q04DX003 (ip), vehicle: saline",98 % of control
C=CCSc1nc2ccc(NC(=O)/C=C/C(=O)O)cc2s1,T/C,[2],95 % of control
same,T/C,[3],93 % of control
same,T/C,[4],102 % of control
COc1cccc2c1C(=O)c1c(O)c3c(c(O)c1C2=O)C[C@@](O)(C(C)=O)C[C@@H]3OC1CC(N2CCOCC2)C(O)C(C)O1 (stereo not given in full),T/C,"dose: 25.0 micrograms/kg/injection, schedule: Q04DX003 (ip), vehicle: water",112 % of control
same,T/C,"dose: 50.0 micrograms/kg/injection, schedule: Q04DX003 (ip), vehicle: water",101 % of control and 98 % of control and 108 % of control
same,T/C,"dose: 100.0 micrograms/kg/injection, schedule: Q04DX003 (ip), vehicle: water",115 % of control [middle of 4 runs]
CCOP(=O)(OCC)/C(C#N)=C\c1ccc(O)c(OC)c1,T/C,"dose: 100.0 mg/kg/injection, schedule: Q04DX003 (ip), vehicle: saline with Tween-80",110 % of control
same,T/C,"dose: 200.0 mg/kg/injection, schedule: Q04DX003 (ip), vehicle: saline with Tween-80",100 % of control
same,T/C,"dose: 400.0 mg/kg/injection, schedule: Q04DX003 (ip), vehicle: saline with Tween-80",100 % of control
Cc1nc2nc(Cl)c(Cl)nc2[nH]1,T/C,[5],100 % of control
same,T/C,[6],104 % of control
same,T/C,[7],104 % of control
CCSC(=Nc1nc2ccc(NC(C)=O)cc2s1)SCC,T/C,"dose: 6.25 mg/kg/injection, schedule: Q01DX009 (ip), vehicle: Klucel (hydroxypropylcellulose) (HPC)",97 % of control
same,T/C,[8],101 % of control
same,T/C,[9],98 % of control
CC(=O)OCC1OC(N(O)Cc2ccccc2)C(OC(C)=O)C(OC(C)=O)C1OC(C)=O (stereo not given),T/C,"dose: 50.0 mg/kg/injection, schedule: Q01DX005 (ip), vehicle: Klucel (hydroxypropylcellulose) (HPC)",100 % of control
same,T/C,"dose: 100.0 mg/kg/injection, schedule: Q01DX005 (ip), vehicle: Klucel (hydroxypropylcellulose) (HPC)",95 % of control
same,T/C,"dose: 200.0 mg/kg/injection, schedule: Q01DX005 (ip), vehicle: Klucel (hydroxypropylcellulose) (HPC)",86 % of control
NC1=NC(c2c3ccccc3cc3ccccc23)N=C(Nc2cccc(Cl)c2)N1 (stereo not given),T/C,"dose: 6.25 mg/kg/injection, schedule: Q01DX009 (ip), vehicle: saline with Tween-80",107 % of control
same,T/C,"dose: 12.5 mg/kg/injection, schedule: Q01DX009 (ip), vehicle: saline with Tween-80",114 % of control
same,T/C,[6],95 % of control
C=CC(=O)NC(C(=O)O)C(C)C (stereo not given),T/C,[1],97 % of control
same,T/C,"dose: 100.0 mg/kg/injection, schedule: Q01DX005 (ip), vehicle: saline",97 % of control
same,T/C,"dose: 200.0 mg/kg/injection, schedule: Q01DX005 (ip), vehicle: saline",100 % of control
CCO/C(C)=C(/C(C)=O)C(=O)NC1CCCCC1,T/C,[7],95 % of control
same,T/C,[10],90 % of control
same,T/C,"dose: 400.0 mg/kg/injection, schedule: Q01DX009 (ip), vehicle: saline with Tween-80",90 % of control
CC(C(=O)O)n1c(=O)ssc1=O (stereo not given),T/C,"dose: 15.0 mg/kg/injection, schedule: Q01DX005 (ip), vehicle: Klucel (hydroxypropylcellulose) (HPC)",102 % of control
same,T/C,"dose: 30.0 mg/kg/injection, schedule: Q01DX005 (ip), vehicle: Klucel (hydroxypropylcellulose) (HPC)",93 % of control
same,T/C,"dose: 60.0 mg/kg/injection, schedule: Q01DX005 (ip), vehicle: Klucel (hydroxypropylcellulose) (HPC)",93 % of control
O=C(NCCN1C(=O)C2C3CCC(O3)C2C1=O)Nc1ccc([N+](=O)[O-])cc1[N+](=O)[O-] (stereo not given),T/C,[11],91 % of control
same,T/C,[12],91 % of control
CC1NCC23CCC4C(CC=C5CC(O)CCC54C)C2CCC13 (stereo not given),T/C,[5],90 % of control
same,T/C,[6],87 % of control
same,T/C,[7],94 % of control
CC(=O)OC(C(=O)C=[N+]=[N-])C(OC(C)=O)C(OC(C)=O)C(=O)C=[N+]=[N-] (stereo not given),T/C,[2],99 % of control
same,T/C,[3],113 % of control
same,T/C,[4],108 % of control
CNC(=S)NNc1cccc2ccccc12,T/C,"dose: 12.5 mg/kg/injection, schedule: Q01DX009 (ip), vehicle: other",97 % of control
same,T/C,"dose: 25.0 mg/kg/injection, schedule: Q01DX009 (ip), vehicle: other",101 % of control
same,T/C,"dose: 50.0 mg/kg/injection, schedule: Q01DX009 (ip), vehicle: other",100 % of control
same,T/C,"dose: 100.0 mg/kg/injection, schedule: Q01DX009 (ip), vehicle: other",103 % of control and 96 % of control
same,T/C,"dose: 200.0 mg/kg/injection, schedule: Q01DX009 (ip), vehicle: other",103 % of control and 96 % of control
same,T/C,"dose: 400.0 mg/kg/injection, schedule: Q01DX009 (ip), vehicle: other",94 % of control
CC1(C)CC(OP(=[Se])(OC2CC(C)(C)N(O)C(C)(C)C2)c2ccccc2)CC(C)(C)N1O,T/C,"dose: 12.5 mg/kg/injection, schedule: Q01DX001 (ip), vehicle: Klucel (hydroxypropylcellulose) (HPC)",102 % of control
same,T/C,"dose: 25.0 mg/kg/injection, schedule: Q01DX001 (ip), vehicle: Klucel (hydroxypropylcellulose) (HPC)",102 % of control
same,T/C,"dose: 50.0 mg/kg/injection, schedule: Q01DX001 (ip), vehicle: Klucel (hydroxypropylcellulose) (HPC)",105 % of control
O=C1c2ccccc2C(=O)c2c1cc1c(c2[N+](=O)[O-])OCO1,T/C,"dose: 30.0 mg/kg/injection, schedule: Q01DX005 (ip), vehicle: saline with Tween-80",99 % of control and 107 % of control
same,T/C,[11],99 % of control and 112 % of control and 113 % of control
same,T/C,[12],99 % of control and 118 % of control and 120 % of control
same,T/C,"dose: 240.0 mg/kg/injection, schedule: Q01DX005 (ip), vehicle: saline with Tween-80",118 % of control and 96 % of control
COC1OCN(C2CCCCC2)CC1(C)C (stereo not given),T/C,"dose: 17.5 mg/kg/injection, schedule: Q01DX009 (ip), vehicle: saline with Tween-80",100 % of control
same,T/C,"dose: 35.0 mg/kg/injection, schedule: Q01DX009 (ip), vehicle: saline with Tween-80",104 % of control
same,T/C,"dose: 70.0 mg/kg/injection, schedule: Q01DX009 (ip), vehicle: saline with Tween-80",117 % of control
Cc1n(-c2ccccc2)nn[n+]1C,T/C,[8],116 % of control and 92 % of control
same,T/C,[9],101 % of control
same,T/C,[2],103 % of control and 91 % of control
CC(C)(C)[Si](C)(C)OCc1ccccc1N1C(=O)C(NC(=O)Cc2ccccc2)C1/C=C/c1ccccc1 (stereo not given),T/C,[6],99 % of control
same,T/C,[7],94 % of control
same,T/C,[10],92 % of control
CC12C(=O)OC(=O)C1(C)C1CCC2O1 (stereo not given),T/C,"dose: 0.93 mg/kg/injection, schedule: Q01DX005 (ip), vehicle: saline with Tween-80",109 % of control
same,T/C,"dose: 1.87 mg/kg/injection, schedule: Q01DX005 (ip), vehicle: saline with Tween-80",102 % of control
